Measurements: ChEMBL document CHEMBL5291721, “A preclinical secondary pharmacology resource illuminates target-adverse drug reaction associations of marketed drugs” (Nat Commun, 2023)

What was measured:
[1] = molecular target: T1, Glucocorticoid receptor (Homo sapiens, UniProt P04150); assay type: functional
T1 sequence (P04150 whole entry): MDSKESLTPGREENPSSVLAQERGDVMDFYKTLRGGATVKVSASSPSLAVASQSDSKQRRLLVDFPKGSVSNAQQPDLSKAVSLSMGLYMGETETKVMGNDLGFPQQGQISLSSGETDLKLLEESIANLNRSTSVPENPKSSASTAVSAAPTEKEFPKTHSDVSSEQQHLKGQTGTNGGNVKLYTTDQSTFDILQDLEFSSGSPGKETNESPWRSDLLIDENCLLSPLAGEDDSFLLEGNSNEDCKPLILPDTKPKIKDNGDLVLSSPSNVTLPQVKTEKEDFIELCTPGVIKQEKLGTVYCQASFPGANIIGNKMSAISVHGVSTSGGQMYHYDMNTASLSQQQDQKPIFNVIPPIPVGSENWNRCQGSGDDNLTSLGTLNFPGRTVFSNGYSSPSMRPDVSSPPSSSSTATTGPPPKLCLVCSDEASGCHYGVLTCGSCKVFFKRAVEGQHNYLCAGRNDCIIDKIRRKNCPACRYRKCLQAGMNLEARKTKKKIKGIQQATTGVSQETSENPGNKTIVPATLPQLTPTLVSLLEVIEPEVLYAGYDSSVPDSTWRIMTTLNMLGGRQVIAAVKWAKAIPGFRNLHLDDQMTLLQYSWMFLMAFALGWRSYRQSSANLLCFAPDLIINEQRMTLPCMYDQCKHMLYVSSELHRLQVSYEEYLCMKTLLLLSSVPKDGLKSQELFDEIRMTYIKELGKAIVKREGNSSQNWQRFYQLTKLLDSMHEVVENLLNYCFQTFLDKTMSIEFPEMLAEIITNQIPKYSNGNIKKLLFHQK

[2] = molecular target: Mu-type opioid receptor (Homo sapiens, UniProt P35372); assay: biochemical; assay type: functional
[3] = molecular target: T1, Glucocorticoid receptor; assay type: functional; remark: listed apart in the source
[4] = molecular target: Gamma-aminobutyric acid receptor subunit alpha-1/alpha-2/beta-2/gamma-2 (Homo sapiens, UniProt P14867+P18507+P47869+P47870); assay type: functional, cell-based
[5] = molecular target: T2, Estrogen receptor (Homo sapiens, UniProt P03372); assay type: functional
T2 sequence (P03372 whole entry): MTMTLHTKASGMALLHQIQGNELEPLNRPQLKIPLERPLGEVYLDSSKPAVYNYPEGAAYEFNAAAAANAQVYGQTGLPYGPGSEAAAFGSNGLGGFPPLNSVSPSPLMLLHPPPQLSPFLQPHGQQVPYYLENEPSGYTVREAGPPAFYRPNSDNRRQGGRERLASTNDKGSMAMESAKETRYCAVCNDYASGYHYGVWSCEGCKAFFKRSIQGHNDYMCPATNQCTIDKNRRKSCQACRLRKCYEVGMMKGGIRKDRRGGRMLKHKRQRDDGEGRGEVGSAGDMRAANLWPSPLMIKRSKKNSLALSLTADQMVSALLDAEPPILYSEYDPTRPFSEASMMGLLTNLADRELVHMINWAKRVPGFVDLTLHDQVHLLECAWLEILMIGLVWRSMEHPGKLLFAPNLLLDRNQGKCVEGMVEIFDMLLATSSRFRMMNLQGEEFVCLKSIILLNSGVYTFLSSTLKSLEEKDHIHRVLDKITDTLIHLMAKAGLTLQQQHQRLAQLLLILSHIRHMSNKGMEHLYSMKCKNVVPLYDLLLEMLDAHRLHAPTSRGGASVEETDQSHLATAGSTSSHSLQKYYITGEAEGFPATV

[6] = molecular target: T3, Thromboxane A2 receptor (Homo sapiens, UniProt P21731); assay type: functional, cell-based
T3 sequence (P21731 whole entry): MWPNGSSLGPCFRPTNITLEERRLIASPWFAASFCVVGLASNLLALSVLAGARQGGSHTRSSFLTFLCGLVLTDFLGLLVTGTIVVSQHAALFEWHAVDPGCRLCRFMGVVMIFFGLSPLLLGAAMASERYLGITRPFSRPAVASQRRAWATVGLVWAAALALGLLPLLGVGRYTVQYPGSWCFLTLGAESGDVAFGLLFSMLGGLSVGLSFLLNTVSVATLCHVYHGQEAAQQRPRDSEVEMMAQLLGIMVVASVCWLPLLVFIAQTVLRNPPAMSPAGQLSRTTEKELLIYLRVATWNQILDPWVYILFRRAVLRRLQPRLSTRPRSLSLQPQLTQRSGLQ

[7] = molecular target: Vascular endothelial growth factor receptor 2 (Homo sapiens, UniProt P35968); assay type: functional
[8] = molecular target: Melanocortin receptor 4 (Homo sapiens, UniProt P32245)
[9] = molecular target: T4, Adenosine receptor A1 (Homo sapiens, UniProt P30542)
T4 sequence (P30542 whole entry): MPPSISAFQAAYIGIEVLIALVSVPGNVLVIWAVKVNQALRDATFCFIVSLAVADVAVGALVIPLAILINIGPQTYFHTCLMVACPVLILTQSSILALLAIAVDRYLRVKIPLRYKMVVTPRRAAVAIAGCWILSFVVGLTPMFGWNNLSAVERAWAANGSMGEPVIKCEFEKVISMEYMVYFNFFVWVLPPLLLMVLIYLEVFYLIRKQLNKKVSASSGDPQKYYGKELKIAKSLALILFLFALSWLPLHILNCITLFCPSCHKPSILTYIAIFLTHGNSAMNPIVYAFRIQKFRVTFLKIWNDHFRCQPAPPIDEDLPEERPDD
Note: assay procedure not described here.

Sequence of Mu-type opioid receptor (P35372 whole entry): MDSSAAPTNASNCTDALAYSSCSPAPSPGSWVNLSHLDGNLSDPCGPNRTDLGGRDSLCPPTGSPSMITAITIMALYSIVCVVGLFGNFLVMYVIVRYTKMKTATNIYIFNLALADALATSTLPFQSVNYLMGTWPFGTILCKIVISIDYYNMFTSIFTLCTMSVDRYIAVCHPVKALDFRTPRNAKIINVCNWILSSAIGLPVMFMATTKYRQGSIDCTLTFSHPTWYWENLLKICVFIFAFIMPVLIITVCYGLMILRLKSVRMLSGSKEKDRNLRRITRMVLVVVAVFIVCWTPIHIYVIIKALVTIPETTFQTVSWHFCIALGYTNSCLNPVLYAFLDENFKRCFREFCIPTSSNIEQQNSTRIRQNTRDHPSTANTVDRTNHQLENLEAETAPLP
Sequence of Gamma-aminobutyric acid receptor subunit alpha-1/alpha-2/beta-2/gamma-2 (P14867 whole entry): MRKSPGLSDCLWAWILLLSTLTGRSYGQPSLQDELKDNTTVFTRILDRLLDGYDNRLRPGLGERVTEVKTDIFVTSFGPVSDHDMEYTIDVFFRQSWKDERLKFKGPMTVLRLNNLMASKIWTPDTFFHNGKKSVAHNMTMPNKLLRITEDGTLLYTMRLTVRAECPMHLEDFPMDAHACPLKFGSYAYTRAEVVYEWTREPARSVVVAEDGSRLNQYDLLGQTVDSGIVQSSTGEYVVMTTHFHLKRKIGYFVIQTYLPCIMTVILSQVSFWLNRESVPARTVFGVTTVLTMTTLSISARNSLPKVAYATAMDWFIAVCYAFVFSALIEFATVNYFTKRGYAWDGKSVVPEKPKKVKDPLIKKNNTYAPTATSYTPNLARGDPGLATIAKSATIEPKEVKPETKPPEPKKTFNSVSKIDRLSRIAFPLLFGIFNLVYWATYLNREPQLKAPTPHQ
Sequence of Gamma-aminobutyric acid receptor subunit alpha-1/alpha-2/beta-2/gamma-2 (P47870 whole entry): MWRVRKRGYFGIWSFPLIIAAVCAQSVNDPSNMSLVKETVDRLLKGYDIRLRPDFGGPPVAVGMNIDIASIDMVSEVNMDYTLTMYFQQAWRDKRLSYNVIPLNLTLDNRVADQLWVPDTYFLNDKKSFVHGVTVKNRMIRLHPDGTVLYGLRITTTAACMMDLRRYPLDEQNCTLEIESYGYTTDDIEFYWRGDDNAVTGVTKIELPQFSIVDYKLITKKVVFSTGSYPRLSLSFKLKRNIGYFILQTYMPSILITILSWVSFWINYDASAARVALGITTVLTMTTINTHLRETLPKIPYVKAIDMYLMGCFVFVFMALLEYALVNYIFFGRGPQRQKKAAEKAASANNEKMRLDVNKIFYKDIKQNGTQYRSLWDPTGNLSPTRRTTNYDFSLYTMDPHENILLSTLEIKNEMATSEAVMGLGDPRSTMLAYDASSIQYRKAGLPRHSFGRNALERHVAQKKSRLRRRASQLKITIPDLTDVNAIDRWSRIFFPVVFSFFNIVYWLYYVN
Sequence of Gamma-aminobutyric acid receptor subunit alpha-1/alpha-2/beta-2/gamma-2 (P18507 whole entry): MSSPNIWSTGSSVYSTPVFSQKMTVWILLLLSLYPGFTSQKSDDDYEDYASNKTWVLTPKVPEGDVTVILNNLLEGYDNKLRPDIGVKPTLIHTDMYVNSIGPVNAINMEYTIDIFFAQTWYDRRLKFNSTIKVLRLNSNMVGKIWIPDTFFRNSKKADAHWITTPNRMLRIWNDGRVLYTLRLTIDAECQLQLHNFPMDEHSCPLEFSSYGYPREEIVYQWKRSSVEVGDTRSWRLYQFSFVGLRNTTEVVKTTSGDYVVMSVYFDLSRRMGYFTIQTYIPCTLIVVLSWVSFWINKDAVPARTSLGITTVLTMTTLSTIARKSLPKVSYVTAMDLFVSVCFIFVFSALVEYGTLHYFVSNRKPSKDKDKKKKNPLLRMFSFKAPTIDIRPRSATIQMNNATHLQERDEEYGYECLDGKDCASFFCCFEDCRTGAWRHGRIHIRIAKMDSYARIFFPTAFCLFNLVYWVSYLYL
Sequence of Gamma-aminobutyric acid receptor subunit alpha-1/alpha-2/beta-2/gamma-2 (P47869 whole entry): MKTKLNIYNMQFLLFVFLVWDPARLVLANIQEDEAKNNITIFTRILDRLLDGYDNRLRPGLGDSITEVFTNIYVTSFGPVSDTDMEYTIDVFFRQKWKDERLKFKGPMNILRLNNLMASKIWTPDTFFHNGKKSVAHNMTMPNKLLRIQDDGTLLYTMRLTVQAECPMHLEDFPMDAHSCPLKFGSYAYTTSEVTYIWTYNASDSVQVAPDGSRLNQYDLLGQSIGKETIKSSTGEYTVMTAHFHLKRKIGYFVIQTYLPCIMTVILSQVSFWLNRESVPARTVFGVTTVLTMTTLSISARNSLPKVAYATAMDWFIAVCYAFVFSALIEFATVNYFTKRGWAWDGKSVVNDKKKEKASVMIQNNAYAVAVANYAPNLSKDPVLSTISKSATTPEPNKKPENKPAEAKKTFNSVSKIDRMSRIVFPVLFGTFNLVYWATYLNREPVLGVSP
Sequence of Vascular endothelial growth factor receptor 2 (P35968 whole entry): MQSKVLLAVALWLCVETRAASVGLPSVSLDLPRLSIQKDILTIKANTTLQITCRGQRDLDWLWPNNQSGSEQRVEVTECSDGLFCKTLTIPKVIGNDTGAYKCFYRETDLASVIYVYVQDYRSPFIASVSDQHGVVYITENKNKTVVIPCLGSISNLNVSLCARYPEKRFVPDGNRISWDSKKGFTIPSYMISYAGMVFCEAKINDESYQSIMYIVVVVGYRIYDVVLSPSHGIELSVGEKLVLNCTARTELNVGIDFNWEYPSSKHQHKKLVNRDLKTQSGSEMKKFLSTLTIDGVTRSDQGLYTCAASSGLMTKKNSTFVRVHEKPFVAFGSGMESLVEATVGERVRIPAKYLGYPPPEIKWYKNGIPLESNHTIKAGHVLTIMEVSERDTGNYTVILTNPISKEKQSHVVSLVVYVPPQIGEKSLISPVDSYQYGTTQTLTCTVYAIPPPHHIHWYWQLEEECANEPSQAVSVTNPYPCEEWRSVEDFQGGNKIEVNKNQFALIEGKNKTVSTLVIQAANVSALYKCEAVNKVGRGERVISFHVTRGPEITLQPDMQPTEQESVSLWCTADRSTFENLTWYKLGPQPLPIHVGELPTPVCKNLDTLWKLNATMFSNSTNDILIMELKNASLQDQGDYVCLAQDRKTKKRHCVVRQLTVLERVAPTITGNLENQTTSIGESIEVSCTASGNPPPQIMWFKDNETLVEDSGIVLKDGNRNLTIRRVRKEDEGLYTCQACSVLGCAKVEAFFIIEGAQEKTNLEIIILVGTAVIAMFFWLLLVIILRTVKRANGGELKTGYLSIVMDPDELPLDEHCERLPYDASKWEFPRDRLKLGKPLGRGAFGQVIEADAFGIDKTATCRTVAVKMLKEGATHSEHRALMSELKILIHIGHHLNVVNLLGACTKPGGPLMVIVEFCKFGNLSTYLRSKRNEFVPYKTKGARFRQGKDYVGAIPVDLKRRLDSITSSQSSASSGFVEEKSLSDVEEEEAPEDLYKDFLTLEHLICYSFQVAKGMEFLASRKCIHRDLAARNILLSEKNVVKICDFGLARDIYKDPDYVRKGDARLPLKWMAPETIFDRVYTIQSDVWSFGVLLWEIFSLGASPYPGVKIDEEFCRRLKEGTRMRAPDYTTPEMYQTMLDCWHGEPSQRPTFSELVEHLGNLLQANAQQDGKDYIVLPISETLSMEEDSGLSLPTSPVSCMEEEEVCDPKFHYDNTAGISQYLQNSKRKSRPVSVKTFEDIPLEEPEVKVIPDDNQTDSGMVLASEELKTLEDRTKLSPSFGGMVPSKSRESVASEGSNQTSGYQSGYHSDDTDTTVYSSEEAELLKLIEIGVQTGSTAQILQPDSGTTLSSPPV
Sequence of Melanocortin receptor 4 (P32245 whole entry): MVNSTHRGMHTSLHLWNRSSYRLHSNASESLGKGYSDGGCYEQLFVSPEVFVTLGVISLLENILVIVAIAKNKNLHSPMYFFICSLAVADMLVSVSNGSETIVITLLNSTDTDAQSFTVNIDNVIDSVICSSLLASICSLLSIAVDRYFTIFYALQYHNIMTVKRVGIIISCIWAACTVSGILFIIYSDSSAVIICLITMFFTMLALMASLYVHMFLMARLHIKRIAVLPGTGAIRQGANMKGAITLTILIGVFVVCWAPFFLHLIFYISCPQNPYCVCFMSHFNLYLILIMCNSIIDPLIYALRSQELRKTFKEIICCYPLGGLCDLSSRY

Row | Structure (SMILES) | AC50 [1] [µM] | AC50 [2] [µM] | AC50 [3] [µM] | AC50 [4] [µM] | AC50 [5] [µM] | AC50 [6] [µM] | AC50 [7] [µM] | AC50 [8] [µM] | AC50 [9] [µM]
1 | CC(C)/N=c1\cc2n(-c3ccc(Cl)cc3)c3ccccc3nc-2cc1Nc1ccc(Cl)cc1 [CLOFAZIMINE] | > 30 | > 30 | > 30 | – | – | – | – | – | –
2 | CCOCC(O)COc1ccc(NC(=O)CC[S+](C)C)cc1 (configuration not stated) | > 30 | – | > 30 | > 30 | > 30 | – | – | – | –
3 | CN(C)CCC=C1c2ccccc2CCc2ccccc21 [AMITRIPTYLINE] | – | – | – | – | – | > 30 | > 30 | 17.7 | –
4 | O=C(O)[C@H]1/C(=C/CO)O[C@@H]2CC(=O)N21 [CLAVULANIC ACID] | > 30 | – | > 30 | > 30 | > 30 | – | – | – | –
5 | NCC1(CC(=O)O)CCCCC1 [GABAPENTIN] | > 30 | – | > 30 | > 30 | – | > 30 | > 30 | > 30 | –
6 | C[C@H](CCC(=O)O)[C@H]1CC[C@H]2[C@@H]3[C@H](O)C[C@@H]4C[C@H](O)CC[C@]4(C)[C@H]3CC[C@]12C [CHENODIOL] | – | – | – | > 30 | > 30 | – | > 3 | – | –
7 | Nc1c2c(nc3ccccc13)CCCC2O (configuration not stated) [VELNACRINE] | > 30 | – | 14 | > 30 | > 30 | – | > 30 | – | –
8 | CO[C@@H]1[C@@H](OC(N)=O)[C@@H](O)[C@H](Oc2ccc3c(O)c(NC(=O)c4ccc(O)c(CC=C(C)C)c4)c(=O)oc3c2C)OC1(C)C [NOVOBIOCIN] | > 30 | – | > 30 | > 30 | > 30 | – | 25 | – | –
9 | COc1cc2c(cc1OC)C1CC(=O)C(CC(C)C)CN1CC2 (configuration not stated) [TETRABENAZINE] | – | – | – | > 30 | > 30 | – | > 30 | – | –
10 | CCC[C@@]1(CCc2ccccc2)CC(O)=C([C@H](CC)c2cccc(NS(=O)(=O)c3ccc(C(F)(F)F)cn3)c2)C(=O)O1 | > 30 | – | > 30 | > 30 | – | – | > 30 | – | –
11 | CC(=O)Oc1ccccc1C(=O)O [ASPIRIN] | – | – | – | – | – | > 30 | > 30 | > 30 | –
12 | C[C@H](Nc1ncnc2[nH]cnc12)c1cc2cccc(Cl)c2c(=O)n1-c1ccccc1 [DUVELISIB] | > 30 | – | > 30 | > 30 | > 30 | > 30 | > 30 | – | > 30
13 | CC(=O)SCC(Cc1ccccc1)C(=O)NCC(=O)OCc1ccccc1 (configuration not stated) [RACECADOTRIL] | > 30 | > 30 | 6.3 | – | – | – | – | > 30 | –
14 | CC(C)(CO)c1cc2cc(NC(=O)C3(c4ccc5c(c4)OC(F)(F)O5)CC3)c(F)cc2n1C[C@@H](O)CO [TEZACAFTOR] | > 30 | – | > 30 | > 30 | > 30 | – | – | – | –
15 | Cc1c(C)c2c(c(C)c1O)CCC(C)(COc1ccc(CC3SC(=O)NC3=O)cc1)O2 (configuration not stated) [TROGLITAZONE] | – | > 30 | – | > 30 | > 30 | 17.6 | – | > 30 | –
16 | O=C1[C@@H]2[C@H]3CC[C@H](C3)[C@@H]2C(=O)N1C[C@@H]1CCCC[C@H]1CN1CCN(c2nsc3ccccc23)CC1 [LURASIDONE] | > 10 | – | > 10 | > 30 | > 30 | > 30 | > 30 | – | –
17 | c1cnc2cc3c(cc2n1)[C@@H]1CNC[C@H]3C1 [VARENICLINE] | – | – | – | > 30 | > 30 | – | > 30 | – | –
18 | CN1CC2c3ccccc3Oc3ccc(Cl)cc3C2C1 (configuration not stated) [ASENAPINE] | > 30 | – | > 30 | > 30 | > 30 | – | > 30 | – | –
19 | Cn1cnc2c(F)c(Nc3ccc(Br)cc3F)c(C(=O)NOCCO)cc21 [BINIMETINIB] | > 30 | – | > 30 | > 30 | > 30 | – | > 30 | – | –
20 | C[C@@H](O)[C@H]1C(=O)N2C(C(=O)O)=C(SCCN=CN)C[C@H]12 [IMIPENEM ANHYDROUS] | > 300 | – | > 300 | > 2000 | > 300 | – | > 300 | – | –
